Experimental data reported in patent publication US10022459B2, “Medical tissue-marker and manufacturing method for the same” (NATIONAL UNIVERSITY CORPORATION CHIBA UNIVERSITY, priority 2011, dated 2018).

What was measured:
[1] = test system: submucosal layer of the stomach wall of a pig; assay: Local injection into submucosal layer of the stomach wall of a pig, fluorescent laparoscope view from the outside of the stomach; assay type: in vivo
Procedure: Then, the fabricated clusters were injected into biological tissue and the result thereof was confirmed. Specifically, submucosal layer of the stomach wall of a pig was a most suitable target of the marker administration. The fluid dispersion of 300 μl, including the clusters, was administrated on four points surrounding a metal clip placed inside the stomach by local injection.
The left and middle panels show conventional and fluorescent laparoscopic images immediately after local injection, respectively. […] It was confirmed that the clusters were sufficiently stable at the injection points. […] In this case, the exact injection positions were unclear immediately after injection as well as 6 hours after injection.
Herein, the stability was again confirmed 24 hours after the local injection of the marker. The submucosal layer of the stomach wall was a most suitable target of the marker administration. The fluid dispersion of 300 μl including clusters was administrated at two points surrounding a metal clip by local injection. The pig recovered from general anesthesia after the administration. Twenty-four hours later, laparoscopy was performed again under general anesthesia.
The optimum injection amount of the marker was verified. When the concentration of the clusters according to the example 1 was 100 μl or more, the injection points could be confirmed. The concentration thereof was preferably 200 μl or more, and is more preferably 300 μl or more. In FIG. 17, 50 μl was used. In FIG. 18, 100 μl was used. In FIG. 19, 200 μl was used. In FIG. 20, 300 μl was used.

stomach of the pig = assay: Fluorescence imaging (near-infrared LED light) of the excised pig stomach after marker administration; assay type: in vivo; conditions: 32 hours after administration, 300 μl each at four points
Procedure: Then, the stomach of the pig was excised, and fluorescence and X-ray CT imaging was performed 32 hours after the marker (300 μl each at four points around a metal clip) administration.

SMILES: CC1(C)C(/C=C/C=C/C=C/C=C2\N(CCCCS(=O)(=O)O)c3ccc4ccccc4c3C2(C)C)=[N+](CCCCS(=O)(=O)[O-])c2ccc3ccccc3c21 [ICG aqueous solution, indocyanine green]
- identification of injection points in fluorescent laparoscopic image ([1]; 6 hours after local injection, 300 μl at four points): unclear
- distinguishability of four closely located injection points by fluorescent laparoscope ([1]; 18 hours after administration, 300 μl at four points): impossible to distinguish
- identification of injection points in fluorescent laparoscopic image ([1]; immediately after local injection): unclear
- fluorescence pattern at the injection site (stomach of the pig): broad diffusion of the fluorescence
